Test results taken from US12643887B2, “Heterocyclic derivatives with cardiomyocyte proliferation activity for treatment of heart diseases” (Tongji University, priority 2019, dated 2026).

Experiments:
[1] = target: T1, human CLK1 (Homo sapiens, UniProt P49759); assay: CLK1 enzyme assay (ADP-Glo); type: biochemical; conditions: ADP-Glo, ATP 10 μM; read-out: CLK1 IC50
T1 construct: Recombinant human CLK1 (129-end); GST (N); purchased SignalChem C57-11G; host or cells: Sf9 insect cells
Experimental: The ability of compounds to inhibit human CLK1 kinase activities was determined using a commercially available ADP-Glo™ Kinase Assay kit (Promega, Cat #V9102) according to the manufacturer's protocol.
(§1) Recombinant human CLK1 (129-end) (expressed in Sf9 insect cells with an N-terminal GST tag) was purchased from SignalChem (Cat #C57-11G). Recombinant full length human MBP (expressed in E. Coli cells with an N-terminal GST tag.) was purchased from SignalChem (Cat #M42-54G). This assay, run in a 384-well plate format, is a generic method for measuring kinase activities using an ADP-Glo Kinase Assay Kit. The basic assay procedure involves two steps: (1) Enzymatic step: inhibitors are incubated with the kinase and then ATP (included in the ADP-Glo Kinase Assay Kit) and the MBP protein are added to start the enzymatic reaction; (2) Detection step: after the kinase reaction, first ADP-Glo™ Reagent is added to terminate the kinase reaction and deplete the remaining ATP. Second, the Kinase Detection Reagent is added to simultaneously convert ADP to ATP and allow the newly synthesized ATP to be measured using a luciferase/luciferin reaction. The light generated is measured using a luminometer.
Briefly, CLK1 (16 nM) in the enzymatic buffer solutions (40 mM Tris, pH 7.5, 20 mM MgCl2, 0.1 mg/ml BSA, 50 μM DTT) were mixed with various concentrations of inhibitors (dissolved in 100% DMSO). These solutions were incubated for 30 minutes at 25° C., and subsequently a mixture of substrate peptide and ATP was added with the final peptide and ATP concentrations at 2 μM and 10 μM, respectively. The final reaction mixture of enzyme-substrate-ATP-compound was incubated for 60 minutes at 25° C.
(§2) Afterwards ADP-Glo™ Reagent was added and the mixture was incubated at 25° C. for 60 minutes. Then Kinase Detection Reagent was added and the final mixture was incubated at 25° C. for 60 minutes. The luminescence signal of the final solution was measured on an Envision instrument (PerkinElmer). The percent (%) inhibition at each concentration of a compound is calculated relative to the luminescence signal in the Max and Min control wells contained within each assay plate. […] The concentrations and percent inhibition values for a test compound are plotted and the concentration of the compound required to achieve 50% inhibition (IC50) is determined with a four-parameter logistic dose response equation.

[2] = target: T2, human GSK3 beta (Homo sapiens, UniProt P49841); assay: GSK3 beta enzyme assay (ADP-Glo); type: biochemical; conditions: ATP 25 μM, read-out: GSK3b IC50
T2 construct: Recombinant full-length human GSK3 beta (expressed in Sf9 insect cells with an N-terminal His tag); His (N); purchased SignalChem G09-10H; host or cells: Sf9 insect cells
T2 sequence (P49841 whole entry): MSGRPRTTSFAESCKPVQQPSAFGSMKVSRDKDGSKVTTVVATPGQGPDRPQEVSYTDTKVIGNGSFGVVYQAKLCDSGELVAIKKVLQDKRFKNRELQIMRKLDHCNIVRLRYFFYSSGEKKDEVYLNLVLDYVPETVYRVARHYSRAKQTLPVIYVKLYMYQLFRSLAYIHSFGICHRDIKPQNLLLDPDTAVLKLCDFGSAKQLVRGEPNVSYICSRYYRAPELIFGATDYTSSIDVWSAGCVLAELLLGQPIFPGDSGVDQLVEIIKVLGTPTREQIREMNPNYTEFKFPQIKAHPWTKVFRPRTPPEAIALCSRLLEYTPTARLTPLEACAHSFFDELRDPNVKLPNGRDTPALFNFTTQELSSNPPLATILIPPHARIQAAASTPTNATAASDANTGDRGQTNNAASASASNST
Experimental: 1. GSK3 Beta Enzyme Assay
The ability of compounds to inhibit human GSK3 beta kinase activities was determined using a commercially available ADP-Glo™ Kinase Assay kit (Promega, Cat #V9102) according to the manufacturer's protocol. The ADP-Glo™ Kinase Assay is a luminescent ADP detection assay that provides a universal, homogeneous, high-throughput screening method to measure kinase activity by quantifying the amount of ADP produced during a kinase reaction. The ADP-Glo™ Kinase Assay can be used to monitor the activity of virtually any ADP-generating enzymes (e.g., kinases or ATPases).
as §1, with “Recombinant full-length” for “Recombinant”, “GSK3 beta” for “CLK1 (129-end)”, “His” for “GST”, “#G09-10H). The GSK3 substrate peptide (sequence: […](pS)EDEEE)” for “#C57-11G). Recombinant full length human MBP (expressed in E. Coli cells with an N-terminal GST tag.)”, “#G50-58).” for “#M42-54G).”, “GSK3 substrate peptide” for “MBP protein”
Briefly, GSK3 beta (4 nM) in the enzymatic buffer solutions (40 mM Tris, pH 7.5, 20 mM MgCl2, 0.1 mg/ml BSA, 50 μM DTT) were mixed with various concentrations of inhibitors (dissolved in 100% DMSO). These solutions were incubated for 30 minutes at 25° C., and subsequently a mixture of substrate peptide and ATP was added with the final peptide and ATP concentrations at 13 μM and 25 μM, respectively. The final reaction mixture of enzyme-substrate-ATP-compound was incubated for 60 minutes at 25° C.
as §2

T1 sequence (P49759 129-484 limits assumed): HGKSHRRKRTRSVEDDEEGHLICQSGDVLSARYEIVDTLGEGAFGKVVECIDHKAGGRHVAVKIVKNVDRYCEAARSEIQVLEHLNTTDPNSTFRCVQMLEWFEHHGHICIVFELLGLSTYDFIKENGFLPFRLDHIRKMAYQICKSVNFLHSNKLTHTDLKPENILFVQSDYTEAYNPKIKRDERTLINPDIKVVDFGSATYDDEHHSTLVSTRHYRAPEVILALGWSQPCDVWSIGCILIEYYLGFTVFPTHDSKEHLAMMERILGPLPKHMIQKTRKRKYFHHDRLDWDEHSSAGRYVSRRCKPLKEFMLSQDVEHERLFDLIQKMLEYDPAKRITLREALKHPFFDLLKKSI

Compound	IC50 [1] [µM]	IC50 [2] [µM]
CN(C1=N/C(=C\c2ccc3c(c2)OCO3)C(=O)N1)c1ccccc1 [Example 1, (Z)-5-(benzo[d][1,3]dioxol-5-ylmethylene)-2-(methyl(phenyl)amino)-3,5-dihydro-4H-imidazol-4-one]	0.1 to 1	–
O=C1/C(=C/c2ccc3c(c2)OCO3)N=C(N(Cc2ccccc2)c2ccccc2)N1Cc1ccccc1 [Example 2, (Z)-5-(benzo[d][1,3]dioxol-5-ylmethylene)-3-benzyl-2-(benzyl(phenyl)amino)-3,5-dihydro-4H-imidazol-4-one]	1 to 10	–
CN1C(=O)/C(=C/c2ccc3c(c2)OCO3)N=C1N(C)c1ccccc1 [Example 3, (Z)-5-(benzo[d][1,3]dioxol-5-ylmethylene)-3-methyl-2-(methyl(phenyl)amino)-3,5-dihydro-4H-imidazol-4-one]	1 to 10	–
O=C1NC(Nc2ccccc2)=N/C1=C\c1ccc2ncsc2c1 [Example 6, (Z)-5-(benzo[d]thiazol-6-ylmethylene)-2-(phenylamino)-3,5-dihydro-4H-imidazol-4-one]	< 0.1	0.1 to 1
CN(C1=N/C(=C\c2ccc3ncsc3c2)C(=O)N1)c1ccccc1 [Example 7, (Z)-5-(benzo[d]thiazol-6-ylmethylene)-2-(methyl(phenyl)amino)-3,5-dihydro-4H-imidazol-4-one]	0.1 to 1	1 to 10
CN(C1=N/C(=C\c2ccc3c(c2)OCCO3)C(=O)N1)c1ccccc1 [Example 8, (Z)-5-((2,3-dihydrobenzo[b][1,4]dioxin-6-yl)methylene)-2-(methyl(phenyl)amino)-3,5-dihydro-4H-imidazol-4-one]	1 to 10	> 10
O=C1NC(Nc2ccccc2)=N/C1=C\c1ccc(=O)[nH]c1 [Example 9, (Z)-5-((5-oxo-2-(phenylamino)-1,5-dihydro-4H-imidazol-4-ylidene)methyl)pyridin-2(1H)-one]	0.1 to 1	> 10
O=C1NC(N(CC2CC2)c2ccccc2)=N/C1=C\c1ccc2c(c1)OCO2 [Example 10, (Z)-5-(benzo[d][1,3]dioxol-5-ylmethylene)-2-((cyclopropylmethyl)(phenyl)amino)-3,5-dihydro-4H-imidazol-4-one]	0.1 to 1	> 10
CN(CC1CC1)C1=N/C(=C\c2ccc3c(c2)OCO3)C(=O)N1 [Example 11, (Z)-5-(benzo[d][1,3]dioxol-5-ylmethylene)-2-((cyclopropylmethyl)(methyl)amino)-3,5-dihydro-4H-imidazol-4-one]	0.1 to 1	> 10
COc1ccc(N(C)C2=N/C(=C\c3ccc4c(c3)OCO4)C(=O)N2)cc1 [Example 12, (Z)-5-(benzo[d][1,3]dioxol-5-ylmethylene)-2-((4-methoxyphenyl)(methyl)amino)-3,5-dihydro-4H-imidazol-4-one]	0.1 to 1	> 10
O=C1NC(N(CCO)c2ccccc2)=N/C1=C\c1ccc2c(c1)OCO2 [Example 13, (Z)-5-(benzo[d][1,3]dioxol-5-ylmethylene)-2-((2-hydroxyethyl)(phenyl)amino)-3,5-dihydro-4H-imidazol-4-one]	0.1 to 1	1 to 10
O=C1NC(Nc2ccccc2)=N/C1=C\c1ccc2scnc2c1 [Example 14, (Z)-5-(benzo[d]thiazol-5-ylmethylene)-2-(phenylamino)-3,5-dihydro-4H-imidazol-4-one]	> 10	> 10
O=C1NC(Nc2ccccc2)=N/C1=C\c1cncs1 [Example 15, (Z)-2-(phenylamino)-5-(thiazol-5-ylmethylene)-3,5-dihydro-4H-imidazol-4-one]	> 10	> 10
O=C1NC(NCc2ccccc2)=N/C1=C\c1ccc2ncsc2c1 [Example 31, (Z)-5-(benzo[d]thiazol-6-ylmethylene)-2-(benzylamino)-3,5-dihydro-4H-imidazol-4-one]	–	1 to 10
O=C1NC(NCC2CC2)=N/C1=C\c1ccc2ncsc2c1 [Example 34, (Z)-5-(benzo[d]thiazol-6-ylmethylene)-2-((cyclopropylmethyl)amino)-3,5-dihydro-4H-imidazol-4-one]	–	1 to 10
